Where two headings read alike, the source gives them in different places. Each block holds one molecule with its values, some of them ahead of it.
Columns and labels:
[1] = Tissue distribution of ganetespib in female CD-1 nu/nu mice bearing RERF human NSCLC xenografts; type: in vivo
Text: Tissue Distribution of Ganetespib in Female CD-1 Nu/Nu Mice Bearing RERF Human NSCLC Xenografts
To confirm the distribution of ganetespib in blood, livers, kidneys, brains, hearts, lungs and tumors after IV administration of ganetespib to female CD-1 nu/nu mice bearing RERF human NSCLC xenografts, and to examine metabolic profiles of ganetespib in plasma, red blood cells, and above tissues.
Animals: female CD-1 nu/nu mice bearing RERF human NSCLC xenografts (N=3/group)
Formulation: 10% DMSO, 18% Cremophor RH40, 3.6% dextrose solution (DRD)
Bleeding time points: 5 min, 6, 24 hr
Collected tissues: blood (plasma and red blood cells (RBC)), liver, kidneys, brain, heart, lung, tumor
Protein precipitation: 50 μL of 10 times diluted plasma or RBC+150 μL ACN (10 mM NH4OAc), vortexed and centrifuged at 10000 rpm for 8 min; 150 μL supernatant+150 μL water (10 mM NH4OAc)
Protein precipitation: 100 μL homogenized tissue (1:3 tissue: PBS buffer)+100 μL ACN (10 mM NH4OAc), vortexed and centrifuged at 10000 rpm for 8 min
Column: Agilent Zorbax Eclipse XDB-C18, 4.6×150 mm, 5 μm
Mobile phase: A: water containing 10 mM NH4OAc; B: 95% ACN containing 10 mM NH4OAc
Gradient: 95/5 A/B to 5/95 A/B in 10 min, total run time 15 min
Column: Phenomenex Synergi, 2.1×50 mm, 4 μm
Mobile phase: A: water containing 0.1% HCOOH; B: ACN containing 0.1% HCOOH
Gradient: 60/40 A/B to 5/95 A/B in 0.5 min, total run time 4 min

HER2 [2] = assay: in vitro HER2 assays; type: cell-based
Text: This example illustrates how a HER2 degradation assay may be used as a test to determine and select Hsp90-targeting moieties suitable for use in SDC-TRAPs of the invention, and further illustrates the ability of SDC-TRAPs to target cells preferentially expressing Hsp90. Such a test may further be used to determine the Hsp90 binding ability of SDC-TRAPs of the invention, as well as through competitive binding assays and cell-based Hsp90 client protein degradation assays known in the art.
BT-474 cells are plated in the interior 60 wells of a 96 well black clear bottom plate (20,000 cells/well) in DMEM medium, with DMEM media in the surrounding 36 wells, and incubated at 37° C. with 5% CO2 overnight. On the second day, concentration response curve source plates are produced (10 point, 3-fold dilution of compounds in DMSO) followed by a 1:30 dilution in an intermediate dilution plate containing DMEM. Compound is transferred from the intermediate plate to the cell plate at a dilution of 1:10. The cells are then incubated at 37° C. with 5% CO2 for 24 hours.
Cells are then fixed in 4% phosphate-buffered paraformaldehyde for 30 minutes at room temperature and then permeabilized by washing five times with 0.1% Triton X-100 in PBS for 5 minutes at room temperature on a shaker. […] The raw data is normalized to DRAQS and the HER2 EC50 is calculated using XLfit™. […]

[3] = system: Ba/F3-JAK2V617F-GFP ascitic tumor cells; conditions: cited from earlier work
JAK2V617F = target: T1, JAK2V617F (Homo sapiens, UniProt O60674, V617F); conditions: Ba/F3 cells; read-out: IC50 JAK2V617F-driven signaling; cited from earlier work
T1 construct: host or cells: Ba/F3

wild-type JAK2 [4] = target: T2, wild-type JAK2 (Homo sapiens, UniProt O60674); conditions: read-out: IC50 interleukin-3-stimulated wild-type JAK2-mediated cell proliferation; cited from earlier work
wild-type JAK2 [5] = target: T2, wild-type JAK2; conditions: read-out: IC50 interleukin-3-stimulated wild-type JAK2-mediated signaling; cited from earlier work
[6] = system: Ba/F3-JAK2V617F-GFP tumor burden; conditions: cited from earlier work
[7] = system: FGF-over VEGF-mediated target signaling; conditions: in mice; cited from earlier work
[8] = in vivo; cited from earlier work
SW1990 = conditions: read-out: IC50 cell proliferation; cited from earlier work
[9] = system: SW1990 human pancreas orthotopic tumor; conditions: in vivo; cited from earlier work
p38α MAPK = p38α MAPK (Homo sapiens, UniProt Q16539); conditions: cited from earlier work
β isoform of p38 MAPK = β isoform of p38 MAPK (Homo sapiens, UniProt Q15759); conditions: in vitro; cited from earlier work
[10] = system: phosphorylation of MK2 (Thr334); conditions: TNFα-stimulated HeLa cells; cited from earlier work
phospho-MK2 = conditions: cited from earlier work
[11] = system: phosphorylation of MK2 (Thr334); conditions: anisomycin-induced mouse RAW264.7 macrophages; cited from earlier work
TNFα secretion = conditions: LPS/IFNγ-stimulated macrophages; cited from earlier work
HER2 [12] = assay: HER2 degradation in BT-474 cells (Method 1, Western blot); type: cell-based, human; conditions: 0.5 μM, overnight
Procedure: […]. The resulting supernatant used as the cytosol fractions is dissolved with sample buffer for SDS-PAGE and run on a SDS-PAGE gel, blotted onto a nitrocellulose membrane by using semi-dry transfer. Non-specific binding to nitrocellulose is blocked with 5% skim milk in TBS with 0.5% Tween at room temperature for 1 hour, then probed with anti-HER2/ErB2 mAb (rabbit IgG, #2242, Cell Signaling) and anti-Tubulin (T9026, Sigma) as housekeeping control protein. HRP-conjugated goat anti-rabbit IgG (H+L) and HRP-conjugated horse anti-mouse IgG (H+L) are used as secondary Ab (#7074, #7076, Cell Signaling) and LumiGLO reagent, 20× Peroxide (#7003, Cell Signaling) is used for visualization. The Hsp90 client protein HER2 is degraded when cells are treated with Hsp90-targeting moieties or SDC-TRAPs of the invention.

p38α MAPK, sequence (Q16539 whole entry, canonical isoform): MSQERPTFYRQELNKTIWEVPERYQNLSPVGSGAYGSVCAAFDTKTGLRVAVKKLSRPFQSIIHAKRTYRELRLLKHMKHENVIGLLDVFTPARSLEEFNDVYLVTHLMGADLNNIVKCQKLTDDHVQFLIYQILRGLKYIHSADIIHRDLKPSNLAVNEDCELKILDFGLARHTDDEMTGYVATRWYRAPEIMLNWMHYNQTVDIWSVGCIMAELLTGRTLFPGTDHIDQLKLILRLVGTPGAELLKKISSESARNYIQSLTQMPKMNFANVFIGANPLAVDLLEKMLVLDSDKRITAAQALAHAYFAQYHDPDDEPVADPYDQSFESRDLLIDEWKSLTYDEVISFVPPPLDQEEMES
T2 sequence (O60674 whole entry, species assumed): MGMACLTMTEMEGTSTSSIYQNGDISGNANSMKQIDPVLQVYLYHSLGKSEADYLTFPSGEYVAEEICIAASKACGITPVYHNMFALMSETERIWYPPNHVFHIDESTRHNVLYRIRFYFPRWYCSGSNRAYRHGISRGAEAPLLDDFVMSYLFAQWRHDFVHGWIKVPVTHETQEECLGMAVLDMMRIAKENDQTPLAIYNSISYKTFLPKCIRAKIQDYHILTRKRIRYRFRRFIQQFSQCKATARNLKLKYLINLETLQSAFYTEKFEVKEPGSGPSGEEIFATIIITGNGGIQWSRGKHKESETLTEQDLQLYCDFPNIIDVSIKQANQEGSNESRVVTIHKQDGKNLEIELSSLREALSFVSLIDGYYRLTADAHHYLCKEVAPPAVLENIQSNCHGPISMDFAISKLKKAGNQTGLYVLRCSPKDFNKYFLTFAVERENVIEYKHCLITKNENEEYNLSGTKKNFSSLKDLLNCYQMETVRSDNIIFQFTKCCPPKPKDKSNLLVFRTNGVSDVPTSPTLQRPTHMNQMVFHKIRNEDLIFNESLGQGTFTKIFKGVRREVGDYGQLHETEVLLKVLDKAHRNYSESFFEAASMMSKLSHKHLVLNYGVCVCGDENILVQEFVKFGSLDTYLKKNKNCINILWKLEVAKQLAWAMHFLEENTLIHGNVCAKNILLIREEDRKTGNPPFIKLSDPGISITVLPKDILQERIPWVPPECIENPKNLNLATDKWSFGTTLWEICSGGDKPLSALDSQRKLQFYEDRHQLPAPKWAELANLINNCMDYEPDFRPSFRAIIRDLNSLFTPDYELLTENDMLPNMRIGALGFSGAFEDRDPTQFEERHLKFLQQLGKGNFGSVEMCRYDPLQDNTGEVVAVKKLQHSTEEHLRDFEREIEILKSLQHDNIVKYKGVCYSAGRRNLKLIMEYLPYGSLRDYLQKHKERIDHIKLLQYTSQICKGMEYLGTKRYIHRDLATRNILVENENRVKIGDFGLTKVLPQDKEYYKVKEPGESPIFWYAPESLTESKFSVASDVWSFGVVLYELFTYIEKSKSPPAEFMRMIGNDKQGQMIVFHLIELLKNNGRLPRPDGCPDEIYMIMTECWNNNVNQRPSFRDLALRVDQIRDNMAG
β isoform of p38 MAPK, sequence (Q15759 whole entry, canonical isoform): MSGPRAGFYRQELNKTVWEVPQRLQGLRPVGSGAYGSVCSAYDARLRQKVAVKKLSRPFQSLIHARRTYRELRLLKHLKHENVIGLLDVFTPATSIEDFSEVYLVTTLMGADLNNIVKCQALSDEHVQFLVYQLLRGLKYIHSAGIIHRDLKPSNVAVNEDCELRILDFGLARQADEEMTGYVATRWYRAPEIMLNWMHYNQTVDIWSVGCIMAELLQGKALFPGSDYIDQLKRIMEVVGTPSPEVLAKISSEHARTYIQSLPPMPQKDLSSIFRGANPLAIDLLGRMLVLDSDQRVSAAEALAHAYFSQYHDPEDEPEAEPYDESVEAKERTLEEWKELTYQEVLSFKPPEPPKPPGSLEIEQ
T1 sequence (O60674 whole entry V617F): as the sequence (O60674 whole entry, species assumed) above, with V617F counted along it

concentration of ganetespib in tumor ([1]; 5 min after 50 mg/kg IV): 2350 nM | mean concentration in plasma relative to RBC ([1]; 5 min time point): about 10 times | Concentration of ganetespib in plasma ([1]; 24 hr after 50 mg/kg IV): >LLOQ | IC50 (HER2 [2]): ~0.03 µM
Structure (SMILES): CC(C)c1cc(-c2nnc(O)n2-c2ccc3c(ccn3C)c2)c(O)cc1O [ganetespib]

Structure (SMILES): Cc1cc(Nc2cc(CN3CCOCC3)c3nc(C)c(Cc4ccc(Cl)cc4F)n3n2)n[nH]1 [LY2784544, 3-(4-Chloro-2-fluorobenzyl)-2-methyl-N-(5-methyl-1H-pyrazol-3-yl)-8-(morpholin-4-ylmethyl)imidazo[1,2-b]pyridazin-6-amine]
TED50 inhibition of STATS phosphorylation [3]: 12.7 mg/kg | IC50 (JAK2V617F): 0.02 µM | IC50 (wild-type JAK2 [4]): 1.31 µM | IC50 (wild-type JAK2 [5]): 1.18 µM | effect on erythroid progenitors, reticulocytes or platelets ([6]; in vivo): no effect | TED50 reduction of Ba/F3-JAK2V617F-GFP tumor burden ([6]; twice daily): 13.7 mg/kg

Structure (SMILES): C[C@@H](Oc1ccc2[nH]nc(/C=C/c3cnn(CCO)c3)c2c1)c1c(Cl)cncc1Cl [LY2874455, (R)-(E)-2-(4-(2-(5-(1-(3,5-Dichloropyridin-4-yl)ethoxy)-1H-indazol-3-yl)vinyl)-1H-pyrazol-1-yl) ethanol]
in vitro and in vivo selectivity on inhibition of FGF-over VEGF-mediated target signaling [7]: 6- to 9 fold

Structure (SMILES): CCN1CCN(Cc2ccc(Nc3ncc(F)c(-c4cc(F)c5nc(C)n(C(C)C)c5c4)n3)nc2)CC1.CS(=O)(=O)O [LY2835219, 2-Pyrimidinamine, N-[5-[(4-ethyl-1-piperazinyl)methyl]-2-pyridinyl]-5-fluoro-4-[4-fluoro-2-methyl-1-(1-methylethyl)-1H-benzimidazol-6-yl]-, methanesulfonate (1:1)]
percent of dose in brain [8]: 0.5-3.9%

Structure (SMILES): COc1cccc(OCCCN)c1-c1cc(Nc2cnc(C#N)cn2)n[nH]1 [LY2606368, 5-((5-(2-(3-aminopropoxy)-6-methoxyphenyl)-1H-pyrazol-3-yl)amino)pyrazine-2-carbonitrile]
IC50 (SW1990): 0.0015 µM | inhibition of metastasis to lymph node, spleen, and intestine [9]: 100% | inhibition of primary tumor growth [9]: over 92%

Structure (SMILES): CC(C)(C)Cn1c(N)nc2ccc(-c3[nH]c(C(C)(C)C)nc3-c3ccc(F)cc3)nc21 [LY2228820, 5-[2-tert-Butyl-4-(4-fluorophenyl)-1H-imidazol-5-yl]-3-(2,2-dimethylpropyl)-3H-imidazo[4,5-b]pyridin-2-amine dimethanesulfonate]
IC50 (p38α MAPK; in vitro, read-out: IC50 α isoform of p38 MAPK): 0.0053 µM | selectivity for p38α MAPK versus 179 other kinases tested (p38α MAPK; including p38δ and γ isoforms): > 1000 fold | IC50 (β isoform of p38 MAPK): 0.0032 µM | IC50 [10]: 0.0081 µM | TMED70 phospho-MK2 inhibition in tumors (phospho-MK2; mice transplanted with B16-F10 melanomas): 19.4 mg/kg | duration of significant target inhibition (phospho-MK2; single 10 mg/kg oral dose): 4 to 8 h | inhibition of phospho-MK2 (phospho-MK2; single 10 mg/kg oral dose): > 40% | IC50 [11]: 0.0353 µM | IC50 (TNFα secretion): 0.0063 µM

Structure (SMILES): C=CCNC1=C2C[C@@H](C)C[C@H](OC)[C@H](O)[C@@H](C)/C=C(\C)[C@H](OC(N)=O)[C@@H](OC)/C=C\C=C(/C)C(=O)NC(=CC1=O)C2=O [17-AAG]
degradation of HER2 (HER2 [12]): partial degradation of HER2

From patent US10376598B2, “Targeted therapeutics” (Madrigal Pharmaceuticals, Inc., priority 2013, dated 2019)
